Key:
[1] = Detection of released H2S by embrowning Pb-acetate paper after thiol addition; details: excess amounts of L-cysteine or cysteamine
Procedure: 850 mg polymer was obtained as a white, fibrous product with an estimated molecular weight of 270 kDa (based on the starting material) and a degree of modification with H2S releasing perthiol structures of […] polymer. This corresponds to a conversion rate of 98% of the thiol moieties of the polymer used as starting material. […] Emerging H2S was detected by embrowning Pb-acetate paper.
This finding was later confirmed by detecting H2S release after addition of excess amounts of L-cysteine or cysteamine to 4-amino-N-(benzoylthio)benzamide via embrowning Pb-acetate paper.

[2] = Olfactory test for H2S liberation; details: dissolved in acetone/phosphate buffer, excess L-cysteine
[3] = tested on: immortalized human microvascular endothelial cells (HMEC-1); assay: Cell compatibility / proliferation (WST-1); format: cell-based; details: HMEC-1 compared with the other cell types
Description: In order to study cell compatibility, especially the effect of proliferation, the H2S releasing hyaluronic acid derivative according to FIG. 1A (s. above,) was investigated in comparison with unmodified HA (sodium salt of hyaluronic acid, “NA HA”) and an […] thiolated hyaluronic acid (“Thiomer CAPPY”). As further control, the well established commercially available H2S donor N-(benzoylthio)benzamide (Donor 5a is NSHD1, a small molecule with a thiol activation mechanism) was included in the experiments.
Three types of skin cells were used as models: primary human dermal fibroblasts (dFb), the immortalized line of human microvascular endothelial cells (HMEC-1) and the keratinocyte cell line HaCat. The cells were cultured in their appropriate medium. Synthetic medium Fibrolife with supplements and gentamycin was used for dFb, EBM+supplements was used for HMEC-1 and DMEM with 10% FCS and 1% CellShield was used for HaCat cells. Furthermore, 3 mM cysteine was added to all conditions investigated. […] Cells were seeded and grown at least overnight before medium was changed and the HA components were added according to the agreed protocol. […] Cell proliferation was measured indicated by using a WST-1-based colorimetric detection reagent according to manufacturers' protocol with fresh medium without addition of any HA-derivative. […]

Row | Structure (SMILES) | H2S release detected by Pb-acetate paper [1] | H2S liberation, olfactory test [2] | sensitivity of endothelial cells to H2S [3]
1 | Nc1ccc(C(=O)NSC(=O)c2ccccc2)cc1 [4-amino-N-(benzoylthio)benzamide] | H2S release | indicated H2S liberation | 
2 | O=C(NSC(=O)c1ccccc1)c1ccccc1 [Donor 5a, N-(benzoylthio)benzamide] |  |  | most sensitive
